pIC50: −log10 of the molar value.

T1 sequence (Q8IYL9 whole entry): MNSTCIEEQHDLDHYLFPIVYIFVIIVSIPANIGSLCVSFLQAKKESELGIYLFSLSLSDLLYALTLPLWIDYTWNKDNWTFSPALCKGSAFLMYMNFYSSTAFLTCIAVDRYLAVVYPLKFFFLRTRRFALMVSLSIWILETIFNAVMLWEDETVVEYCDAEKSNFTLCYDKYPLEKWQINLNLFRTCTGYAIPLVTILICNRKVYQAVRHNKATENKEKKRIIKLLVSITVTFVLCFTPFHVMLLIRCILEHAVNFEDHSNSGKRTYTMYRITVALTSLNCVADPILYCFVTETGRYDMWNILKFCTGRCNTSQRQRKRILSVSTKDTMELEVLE

This experiment addresses T1, human recombinant GPR65 (Homo sapiens, UniProt Q8IYL9).
T1 construct: host or cells: 1321N1 human astrocytoma cells (1321N1-hrGPR65)
The experiment is described as follows: Human GPR65 cAMP HTRF antagonist assay. Type of experiment: cell-based. The note with it: 1321N1-hrGPR65 cells stimulated at assay pH 7.2; suppression of cAMP rise; read-out: hGPR65 IC50. How it is done:
Human GPR65 Cyclic Adenosine Monophosphate (cAMP) Homogeneous Time Resolved Fluorescence (HTRF) Antagonist Assay Procedure
IC50 data was obtained by the following procedure:
1321N1 human astrocytoma cells stably expressing human recombinant GPR65 (1321N1-hrGPR65 cells, EuroscreenFast) were cultured according to the vendor's instructions.
Compounds were tested for their ability to antagonise GPR65, through measuring the concentration of cytoplasmic cAMP following treatment of the cells at a pH of 7.2 to activate GPR65 signalling and addition of the compound to be tested. The extent to which the expected rise in cAMP concentration upon GPR65 activation was suppressed by the added compound is indicative of its potency. The assay was carried out according to EuroscreenFast assay methodology as follows.
On the day of the assay, test compounds were added to 384-well, low volume, white microtiter plates by acoustic dispensing. KRH buffer (5 mM KCl, 1.25 mM MgSO4, 124 mM NaCl, 25 mM HEPES, 13.3 mM Glucose, 1.25 mM KH2PO4 and 1.45 mM CaCl2) was adjusted to pH 6.5, pH 7.6 and pH 8.4 by adding NaOH. 1321N1-hGPR65 cells were rapidly thawed and diluted in KRH, pH 7.6 prior to centrifugation at 300×g for 5 min and resuspension in assay buffer (KRH, pH 7.6, supplemented with 1 mM 3-isobutyl-1-methylxanthine (IBMX) and 200 μM ethylenediaminetetraacetic acid (EDTA)). Cells were added to assay plates at a density of 2,000 cells per well in a volume of 5 μl. Assay plates were briefly centrifuged at 100×g and then incubated at room temperature for 30 min. Cells were stimulated by the addition of 5 μL KRH, pH 6.5, to achieve an assay pH of 7.2, while control wells received 5 μl KRH, pH 8.4 to achieve an assay pH of 7.9. Assay plates were briefly centrifuged at 100×g and then incubated at room temperature for 30 min.
Accumulation of cAMP was detected by cAMP HTRF kit (Cisbio). d2-labeled cAMP and cryptate-labeled anti-cAMP antibody in Lysis and Detection Buffer (Cisbio) were added to assay plates, and the plates were incubated at room temperature for 1 h. HTRF measurements were performed using a Pherastar FSX instrument. Acceptor and donor emission signals were measured at 665 nm and 620 nm, respectively, and HTRF ratios were calculated as signal665 nm/signal620 nm×10^4. Data were normalised to high and low control values and fitted with 4-parameter logistic regression to determine hGPR65 IC50 values for the test compounds, which are shown in Table 1.
For orientation: In TR-FRET formats the signal depends on donor and acceptor labels being close together.
Usually pIC50 stands for the IC50 on a negative log10 scale, so that one unit is a factor of ten. For `O=C(Nc1ccc(Cl)c(C(F)(F)F)c1)N1CCc2ccccc2C1` [Compound 11, N-(4-Chloro-3-(trifluoromethyl)phenyl)-3,4-dihydroisoquinoline-2(1H)-carboxamide], the pIC50 was 5.30 to 6.30. As to `O=C(Nc1ccc(Cl)c(Cl)c1)N1CCc2cccc(F)c2C1` [Compound 45, N-(3,4-Dichlorophenyl)-8-fluoro-3,4-dihydroisoquinoline-2(1H)-carboxamide], the pIC50 is 5.30 to 6.30. As for `O=C(Nc1ccc(C(F)(F)F)c(Cl)c1)N1CCc2ccccc2C1` [Compound 10, N-(3-Chloro-4-(trifluoromethyl)phenyl)-3,4-dihydroisoquinoline-2(1H)-carboxamide], the figure is 5.30 to 6.30; as for `O=C(Nc1ccc(C(F)(F)F)c(Cl)c1)N1CCc2cc(Cl)ccc2C1` [Compound 54, 6-Chloro-N-(3-chloro-4-(trifluoromethyl)phenyl)-3,4-dihydroisoquinoline-2(1H)-carboxamide], greater than 6.30; as for `O=C(Nc1ccc(Cl)c(Cl)c1)N1CCc2nocc2C1` [Compound 98, N-(3,4-Dichlorophenyl)-6,7-dihydroisoxazolo[4,3-c]pyridine-5(4H)-carboxamide], 5.30 to 6.30. Turning to `O=C(Nc1ccc(C(F)(F)F)c(Cl)c1)N1CCc2oncc2C1` [Compound 26, N-(3-Chloro-4-(trifluoromethyl)phenyl)-6,7-dihydroisoxazolo[4,5-c]pyridine-5(4H)-carboxamide], the negative-log IC50 (pIC50) was 5.30 to 6.30. The figure for `O=C(Nc1ccc(Cl)c(Cl)c1)N1CCc2cc3nccn3cc2C1` [Compound 110, N-(3,4-Dichlorophenyl)-8,9-dihydroimidazo[1,2-b][2,7]naphthyridine-7(6H)-carboxamide] is less than 5.30; for `O=C(Nc1ccc(Cl)c(Cl)c1)N1CCc2cccc(Cl)c2C1` [Compound 139, 8-Chloro-N-(3,4-dichlorophenyl)-3,4-dihydroisoquinoline-2(1H)-carboxamide] it is 5.30 to 6.30. Consider `O=C(Nc1ccc(Cl)c(C(F)(F)F)c1)N1CCc2ncccc2C1` [Compound 21, N-(4-Chloro-3-(trifluoromethyl)phenyl)-7,8-dihydro-1,6-naphthyridine-6(5H)-carboxamide], for which the pIC50 was less than 5.30.

In the case of `N#Cc1ccc2c(c1)CN(C(=O)Nc1ccc(Cl)c(C(F)(F)F)c1)CC2` [Compound 50, N-(4-Chloro-3-(trifluoromethyl)phenyl)-7-cyano-3,4-dihydroisoquinoline-2(1H)-carboxamide], the pIC50 was 5.30 to 6.30. The figure for `Cc1cccc2c1CCN(C(=O)Nc1ccc(Cl)c(Cl)c1)C2` [Compound 58, N-(3,4-Dichlorophenyl)-5-methyl-3,4-dihydroisoquinoline-2(1H)-carboxamide] is 5.30 to 6.30; for `O=C(Nc1ccc(Cl)c(C(F)(F)F)c1)N1CCc2cnccc2C1` [Compound 13, N-(4-Chloro-3-(trifluoromethyl)phenyl)-3,4-dihydro-2,6-naphthyridine-2(1H)-carboxamide] it is 5.30 to 6.30. As for `O=C(Nc1ccc(C(F)(F)F)c(Cl)c1)N1CCc2cccc(F)c2C1` [Compound 47, N-(3-Chloro-4-(trifluoromethyl)phenyl)-8-fluoro-3,4-dihydroisoquinoline-2(1H)-carboxamide], the figure is 5.30 to 6.30; as for `Cn1cc2c(cc1=O)CCN(C(=O)Nc1ccc(Cl)c(Cl)c1)C2` [Compound 92, N-(3,4-Dichlorophenyl)-7-methyl-6-oxo-3,4,6,7-tetrahydro-2,7-naphthyridine-2(1H)-carboxamide], less than 5.30; as for `O=C(Nc1ccc(C(F)(F)F)c(Cl)c1)N1CCc2cc(F)ccc2C1` [Compound 44, N-(3-Chloro-4-(trifluoromethyl)phenyl)-6-fluoro-3,4-dihydroisoquinoline-2(1H)-carboxamide], greater than 6.30. The figure for `O=C(Nc1ccc(Cl)c(C(F)(F)F)c1)N1CCc2c(Cl)cccc2C1` [Compound 56, 5-Chloro-N-(4-chloro-3-(trifluoromethyl)phenyl)-3,4-dihydroisoquinoline-2(1H)-carboxamide] is less than 5.30; for `COc1cccc2c1CN(C(=O)Nc1ccc(Cl)c(Cl)c1)CC2` [Compound 64, N-(3,4-Dichlorophenyl)-8-methoxy-3,4-dihydroisoquinoline-2(1H)-carboxamide] it is 5.30 to 6.30.

`O=C(Nc1ccc(Cl)c(Cl)c1)N1CCc2c(Cl)cccc2C1` [Compound 55, 5-Chloro-N-(3,4-dichlorophenyl)-3,4-dihydroisoquinoline-2(1H)-carboxamide]: the pIC50 is 5.30 to 6.30. With `O=C(Nc1ccc(C(F)(F)F)c(Cl)c1)N1CCc2c(cccc2C(F)(F)F)C1` [Compound 70, N-(3-Chloro-4-(trifluoromethyl)phenyl)-5-(trifluoromethyl)-3,4-dihydroisoquinoline-2(1H)-carboxamide], the pIC50 is less than 5.30.

On to `O=C(Nc1ccc(C(F)(F)F)c(Cl)c1)N1CCc2ccnc(Cl)c2C1` [Compound 97, 8-Chloro-N-(3-chloro-4-(trifluoromethyl)phenyl)-3,4-dihydro-2,7-naphthyridine-2(1H)-carboxamide], for which the pIC50 was less than 5.30.

Turning to `O=C(Nc1ccc(C(F)(F)F)c(Cl)c1)N1CCc2ccc(C(F)(F)F)cc2C1` [Compound 71, N-(3-Chloro-4-(trifluoromethyl)phenyl)-7-(trifluoromethyl)-3,4-dihydroisoquinoline-2(1H)-carboxamide], the pIC50 was 5.30 to 6.30. As for `O=C(Nc1ccc(C(F)(F)F)c(Cl)c1)N1CCc2cncnc2C1` [Compound 9, N-(3-Chloro-4-(trifluoromethyl)phenyl)-5,8-dihydropyrido[3,4-d]pyrimidine-7(6H)-carboxamide], the figure is less than 5.30; as for `CS(=O)(=O)c1ccc2c(c1)CCN(C(=O)Nc1ccc(C(F)(F)F)c(Cl)c1)C2` [Compound 124, N-(3-Chloro-4-(trifluoromethyl)phenyl)-6-(methylsulfonyl)-3,4-dihydroisoquinoline-2(1H)-carboxamide], less than 5.30; as for `COc1cccc2c1CCN(C(=O)Nc1ccc(C(F)(F)F)c(Cl)c1)C2` [Compound 134, N-(3-Chloro-4-(trifluoromethyl)phenyl)-5-methoxy-3,4-dihydroisoquinoline-2(1H)-carboxamide], 5.30 to 6.30. As for `O=C(Nc1ccc(Cl)c(Cl)c1)N1CCc2ccncc2C1` [Compound 15, N-(3,4-Dichlorophenyl)-3,4-dihydro-2,7-naphthyridine-2(1H)-carboxamide], the figure is 5.30 to 6.30; as for `O=C(Nc1ccc(C(F)(F)F)c(Cl)c1)N1CCc2ncncc2C1` [Compound 6, N-(3-Chloro-4-(trifluoromethyl)phenyl)-7,8-dihydropyrido[4,3-d]pyrimidine-6(5H)-carboxamide], 5.30 to 6.30; as for `O=C(Nc1ccc(Cl)c(Cl)c1)N1CCc2cc(F)ncc2C1` [Compound 85, N-(3,4-dichlorophenyl)-6-fluoro-3,4-dihydro-2,7-naphthyridine-2(1H)-carboxamide], greater than 6.30.

Take `COc1cc2c(cn1)CCN(C(=O)Nc1ccc(Cl)c(Cl)c1)C2` [Compound 105, N-(3,4-Dichlorophenyl)-7-methoxy-3,4-dihydro-2,6-naphthyridine-2(1H)-carboxamide]: the pIC50 is less than 5.30. Take `Nc1ccc2c(n1)CCN(C(=O)Nc1ccc(Cl)c(Cl)c1)C2` [Compound 122, 2-Amino-N-(3,4-dichlorophenyl)-7,8-dihydro-1,6-naphthyridine-6(5H)-carboxamide]: the pIC50 was less than 5.30.

These data come from patent publication US20230174530A1, “N-(PHENYLAMINOCARBONYL) TETRAHYDRO-ISOQUINOLINES AND RELATED COMPOUNDS AS MODULATORS OF GPR65” (PATHIOS THERAPEUTICS LIMITED, priority 2020, published 2023).
